{"source": "patent US12180146B2", "about": "“Antihypertensive polyol compound and derivative thereof” (TAO PHARMACEUTICAL (SUZHOU) CO., LTD, priority 2020, dated 2024)", "key": {"[1]": {"test_system": "hypoxic pulmonary hypertension model rats", "experiment": "Hypoxic pulmonary hypertension model rats, oral (gavage) treatment for 28 days", "format": "in vivo, SD rats", "settings": "hypoxic PAH rats, po", "protocol": "An animal model of pulmonary hypertension in SD rats was established in a hypoxic and low-pressure environment, and compound 1 was administered by gavage at the same time for treatment. The rat pulmonary artery hemodynamics and right heart hypertrophy index RVHI were measured to determine whether compound 1 has effects of improving hypoxic pulmonary hypertension.\n(§1) SD rats (purchased from Shanghai Xipuer-Bikai Experimental Animal Co., Ltd.), male, weighing 180-200 g, were bred in an artificially controlled animal room with each 12 hours of light and darkness at a temperature of 20-25° C. and relative humidity of 50-60%, and allowed ad libitum to food and water. The rats were randomly divided into groups according to the experimental requirements, and kept separately in cages, with 3 to 4 rats per cage. All relevant operations of animal experiments are in compliance with the provisions of “Guidelines for the Management and Use of Laboratory Animals” of China.\nThe hypoxic PAH model was established by placing SD male rats in a fully-automatically regulated low-pressure hypoxic chamber (atmospheric pressure of about 50 kPa, oxygen concentration of 10%) for 8 hours a day for 28 days. The rats in the blank control group were kept in a normoxic environment.\nThe experimental rats of hypoxic PAH model were divided into 8 groups, namely blank control group, model group, Sidenafil (25 mg/kg) group, compound 1 (10 mg/kg) group, compound 1 (25 mg/kg) group, compound 1 (50 mg/kg) group, compound 1 (100 mg/kg) group, and compound 1 (200 mg/kg) group. The concentration in the parentheses of the group name represents the administration concentration of the compound or drug. In hypoxia-induced PAH experiments, Sidenafil is often used as a positive drug, which can reduce the pulmonary artery pressure in rats and reduce the right ventricular hypertrophy and vascular remodeling. In this experiment, 25 mg/kg of Sidenafil was used as the positive drug. Both the positive drugs Sidenafil and Compound 1 were dissolved in physiological saline and formulated into solutions of different concentrations according to different administration concentrations. The rats were continuously administered for 28 days with an administration volume of 5 ml/kg. Rats in the control and model groups were given the corresponding volume of physiological saline solution via gavage. The specific grouping can be found in Table 5.\nAfter the administration was completed, the POWERLAB biological information acquisition and treatment system was started, and the right cardiac catheter filled with 0.2% heparin sodium (Beijing Solo Technology Co. Ltd.) in normal saline was connected to the pressure transducer and then zero-calibrationed for use. After 20% urethane (Shanghai Yuanye Biotechnology Co., Ltd.) solution was injected into the abdominal cavity of the rats for anesthesia, the right neck hair was shaved and the right jugular vein was isolated and exposed. […] After the typical right ventricular waveform appeared and stabilized for a while, the waveform was recorded, and then the pressure value was read by Powerlab biological information acquisition and processing system (ADInstruments).\nAfter the pressure was measured, the catheter was taken out, and the rat was dissected immediately to take out the heart and lung tissues. The right ventricle (RV) and the left ventricle and interventricular septum (LV+S) were separated and weighed, and the right heart hypertrophy index RVHI=RV/(LV+S) was calculated. The lung lobe tissue from the right lower part of the lung was separated, soaked in 4% paraformaldehyde (Sigma) for about 1 week to prepare a paraffin section with a thickness of 3 μm, and then conducted to hematoxylin-eosin staining (Wuhan Guge Biotechnology Co., Ltd.). […]"}, "[2]": {"test_system": "monocrotaline-induced pulmonary hypertension model rats (MCT-PAH)", "experiment": "Monocrotaline-induced pulmonary hypertension model rats, oral (gavage) treatment for 21 days", "format": "in vivo, SD rats", "settings": "100 mg/kg", "source_text": "Monocrotaline (MCT) was subcutaneously injected to establish an animal model of pulmonary hypertension in SD rats. At the same time, compound 1 was given by gavage for treatment. The pulmonary artery hemodynamics and right heart hypertrophy index RVHI of the rates were detected to determine whether the oral administration of compound 1 has effects of improving Monocrotaline induces pulmonary hypertension.\nas §1\nDuring the experiment, SD rats were randomly divided into 4 groups: blank control group, pulmonary hypertension model group, Selexipag (1 mg/kg) treatment group and compound 1 (100 mg/kg) group with 6 rats in each group, and the concentration in brackets represents the administration concentration of the compound, in which Selexipag is a new oral long-acting prostacyclin receptor agonist discovered and synthesized by Japan New Drug Co., Ltd. On the first day of the experiment, normal saline was injected subcutaneously into the back of neck of rats in the blank control group, and monocrotaline (Chengdu Purifa Biotechnology Co., Ltd.) solution was injected in the rats in other groups at a dosage of 60 mg/kg. Both the positive drug, Selexipag and Compound 1 were administered by gavage. Selexipag and […] were dissolved in 0.5% CMC-Na solution. The rats were continuously administered for 21 days with a volume of […]. The rats in the control and model groups were given the corresponding volume of CMC-Na solution by gavage. Specific groupings can be found in Table 7.\nAfter the administration, the pulmonary vascular hemodynamics and RVHI was determined according to the same experiment method as that in Example 1."}}, "data": [{"compound": "CCc1cccc(C(O)CO)c1", "note": "(stereo not shown) [Compound 1, 1-(3-ethylphenyl)-1,2-ethylene glycol]", "values": [{"measurement": "RVSP", "setting": "[1]; 10 mg/kg", "result": "70.28 ± 4.64", "unit": "mmHg"}, {"measurement": "mPAP", "setting": "[1]; 10 mg/kg", "result": "25.26 ± 3.46", "unit": "mmHg"}, {"measurement": "RVHI", "setting": "[1]; 10 mg/kg, RV/(LV+S)", "result": "0.467 ± 0.030"}, {"measurement": "2 × MT/ED", "setting": "[1]; 10 mg/kg, medium thickness ratio of small pulmonary arteries", "result": "0.361 ± 0.020"}, {"measurement": "2 × MT/ED", "setting": "[1]; 25 mg/kg", "result": "0.323 ± 0.022"}, {"measurement": "RVHI", "setting": "[1]; 25 mg/kg", "result": "0.472 ± 0.026"}, {"measurement": "RVSP", "setting": "[1]; 25 mg/kg", "result": "71.34 ± 2.12", "unit": "mmHg"}, {"measurement": "mPAP", "setting": "[1]; 25 mg/kg", "result": "22.36 ± 1.78", "unit": "mmHg"}, {"measurement": "2 × MT/ED", "setting": "[1]; 50 mg/kg", "result": "0.304 ± 0.021"}, {"measurement": "RVHI", "setting": "[1]; 50 mg/kg", "result": "0.456 ± 0.019"}, {"measurement": "RVSP", "setting": "[1]; 50 mg/kg", "result": "67.46 ± 4.28", "unit": "mmHg"}, {"measurement": "mPAP", "setting": "[1]; 50 mg/kg", "result": "21.66 ± 3.28", "unit": "mmHg"}, {"measurement": "2 × MT/ED", "setting": "[1]; 100 mg/kg", "result": "0.266 ± 0.014"}, {"measurement": "RVHI", "setting": "[1]; 100 mg/kg", "result": "0.301 ± 0.017"}, {"measurement": "RVSP", "setting": "[1]; 100 mg/kg", "result": "59.12 ± 2.12", "unit": "mmHg"}, {"measurement": "mPAP", "setting": "[1]; 100 mg/kg", "result": "15.89 ± 1.12", "unit": "mmHg"}, {"measurement": "2 × MT/ED", "setting": "[1]; 200 mg/kg", "result": "0.241 ± 0.011"}, {"measurement": "RVHI", "setting": "[1]; 200 mg/kg", "result": "0.254 ± 0.022"}, {"measurement": "RVSP", "setting": "[1]; 200 mg/kg", "result": "54.38 ± 2.98", "unit": "mmHg"}, {"measurement": "mPAP", "setting": "[1]; 200 mg/kg", "result": "15.21 ± 1.92", "unit": "mmHg"}, {"measurement": "2 × MT/ED", "setting": "[2]", "result": "0.27 ± 0.062"}, {"measurement": "RVHI", "setting": "[2]", "result": "0.31 ± 0.059"}, {"measurement": "RVSP", "setting": "[2]", "result": "39.72 ± 3.46", "unit": "mmHg"}, {"measurement": "mPAP", "setting": "[2]", "result": "9.21 ± 2.69", "unit": "mmHg"}, {"measurement": "RVHI", "setting": "[2]; listed as compound 1, 100 mg/kg", "result": "0.31±0.059"}]}]}
